From ChEMBL document CHEMBL3880431, “Heme oxygenase inhibitors, screening methods for heme oxygenase inhibitors and methods of use of heme oxygenase inhibitors for antimicrobial therapy” (2013)

What was measured:
Assay type in all cases: physicochemical
[1] = Lipophilicity, log P of the compound; conditions: octanol/water
[2] = Solubility of the compound in methanol
[3] = Solubility of the compound in ethanol

SMILES	logP ([1]; read-out: logP)	also measured
C=CCn1c(S)nc2sc3c(c2c1=O)CCN(C)C3	2.29	
NCCNc1nc(-c2ccccc2)nnc1-c1ccc(Cl)cc1	3.6	
O=C(CNC(=O)c1cccnc1)N/N=C/c1ccccn1	0.32	solubility [2]: Soluble
Nc1nonc1-n1cc(-c2ccccc2)nn1	1.15	
[O-][NH+]1C=CC=C/C1=C1\C=CC=C[NH+]1[O-] (stereo unspecified)	1.95	
NCC(O)(c1ccc(Cl)cc1)c1ccc(Cl)cc1	3.63	solubility [2]: Soluble
Cc1nccn1S(=O)(=O)c1ccc(F)cc1	0.89	
NC(=O)C1=NC(c2cccnc2)=NC1=O	-1.12	
N#Cc1ncc(-c2ccccc2)nc1C#N	0.8	
CCc1ccc2[nH]c3nc(N/N=C/c4ccc(Cl)cc4)nnc3c2c1	7.15	solubility [2]: Insoluble
CN(C)CCN(C)Cc1cccc2ccccc12	3.05	solubility [2]: Insoluble
NCCNS(=O)(=O)c1cccc(C(=O)O)c1	-0.2	
O=C(Cc1ccc(F)cc1)NNC(=O)Cn1cnnn1	-0.66	
O=C(O)c1ccc(Cc2ccccc2)o1	2.22	
O=C(Cc1n[nH]c(=O)[nH]c1=O)N/N=C/c1cccc([N+](=O)[O-])c1	0.86	solubility [3]: Insoluble
COc1ccc(C(=O)COC(=O)/C=C/c2ccccc2)cc1	3.7	solubility [2]: Insoluble
O=C(Cn1ncc2cc([N+](=O)[O-])ccc21)NCc1ccco1	0.92	
CNCc1ccccc1Sc1cccc(OC)c1	3.92	
COc1ccc(C(=O)n2nnc3ccccc32)cc1	2.77	
O=C(Oc1ccc(S(=O)(=O)c2ccc(OC(=O)c3ccco3)cc2)cc1)c1ccco1	3.38	
Cc1cn[nH]c1NC=C1C(=O)c2ccccc2C1=O	1.79	
O=C(O)/C=C\C(=O)Nc1ccc(OCC(=O)O)cc1	0.6	solubility [2]: Soluble
Cc1nc(NCCCC(=O)O)c2ccccc2n1	1.38	
COc1ccc(C(N)Cc2cnc[nH]2)cc1 (stereo unspecified)	0.81	
Nc1nnnn1/N=C/c1cc2c(cc1[N+](=O)[O-])OCO2	0.52	solubility [2]: Insoluble

SMILES	logP ([1]; read-out: logP)	also measured
COc1cc(CC(=O)O)c([N+](=O)[O-])cc1OC	1.3	solubility [3]: Insoluble
Nc1nnc(-c2cc3ccc(O)cc3oc2=O)s1	2.05	
O=C(NCCOc1ccccc1)C(=O)Nc1ccccc1	1.77	solubility [2]: Insoluble
O=C(O)CSc1nc(O)c2ccccc2n1	1.34	
Nc1cc2nc3ccccc3nc2cc1N	1.66	
O=C(O)c1ccc2c(c1)C(=O)N(c1ccc(Cl)cc1)C2=O	3.03	solubility [2]: Soluble
Cc1ccc(CN2CCN(Cc3ccccc3)CC2)cc1	3.57	solubility [2]: Insoluble
O=C(O)CNS(=O)(=O)c1ccc(F)cc1	0.66	
O=C(O)/C=C\C(=O)Nc1ccc(Nc2ccccc2)cc1	2.6	solubility [2]: Soluble
NCCCNc1ccc([N+](=O)[O-])c(N)c1	0.38	
Nc1nonc1-c1noc(-c2cccnc2O)n1	0.04	solubility [2]: Insoluble
COc1ccc(CNC(=N)NC(=N)N)cc1	1.46	
COc1ccc(C(=O)/C=C/Nc2ccccc2C#N)cc1	2.82	solubility [3]: Insoluble
COC(=O)c1ccc(/C=N/n2cnnc2)cc1	1.55	
O=C(O)CSc1cccc2ccccc12	3.22	
NC1=N[NH+]([O-])c2ccccc2[NH+]1[O-] (stereo unspecified)	1.22	
N=C1S/C(=C\c2ccccc2)C(=O)N1c1nonc1N	2.4	
O=C1OC(c2ccccc2)=N/C1=C\Nc1cccc([N+](=O)[O-])c1	3.05	solubility [2]: Insoluble
Cc1ccccc1C(=O)O/N=C(\N)c1cccnc1	2.61	
N=C(N/N=C\c1cccnc1)N/N=C\c1cccnc1	7.05	solubility [2]: Soluble
NC(=O)c1nnn2c1nc(N)c1cc(Cl)ccc12	-0.14	
Cc1cccc2c(CCN)c[nH]c12	1.9	
CC(=O)Nc1ccc(/N=C/c2ccco2)cc1	1.54	solubility [2]: Soluble
O=C(O)c1ccc2c(c1)-c1nc3ccccc3n1C2=O	2.52	solubility [3]: Insoluble
Cc1cc(C)nc(NC(=N)Nc2ccc(C(=O)O)cc2)n1	1.62	solubility [2]: Soluble

SMILES	logP ([1]; read-out: logP)	also measured
O=C(N/N=C/c1ccc(O)cc1O)c1cccnc1	1.88	solubility [2]: Insoluble
Nc1nonc1N/N=C/c1ccc(O)c(O)c1	3.18	
O=C(O)c1cnc2c(ccc3ccccc32)c1O	1.87	
Cn1c(=N)n(CC(=O)O)c2ccccc21	1.6	solubility [3]: Soluble
O=C(CSc1nc2cccnc2[nH]1)NCCc1ccccc1	2.43	
CC(N)c1ccc2ccccc2c1 (stereo unspecified)	2.88	
Cc1ccc(NC(=O)c2cnccn2)cc1Cl	1.48	solubility [2]: Insoluble
Cc1ccc(O)c(/C=N/c2cccc(C(=O)O)c2)c1	3.28	
Cc1ccc(Nc2n[nH]c(N=CNO)n2)cc1C	2.07	
NC(=O)NNC1CC(=O)N(c2ccc(F)cc2)C1=O (stereo unspecified)	-0.43	
O=c1nc2oc3cc(O)ccc3cc-2c(=O)[nH]1	1.25	
c1ccc2[nH]c(Cc3ccncc3)nc2c1	2.14	
COc1ccc(/C=N/NC(=O)Cc2ccc([N+](=O)[O-])cc2)cc1	3.67	
NC(=O)CNC(=O)Cc1ccccc1	0.06	
NCc1ccc2c3c(cccc13)C(=O)N2	1.36	
O=[N+]([O-])c1cccc(-c2noc(Cc3ccccc3)n2)c1	3.33	solubility [3]: Insoluble
CCc1cc(=O)oc2cc(OCC(N)=O)ccc12	1.46	solubility [2]: Insoluble
O=C(NNC(=O)c1ccncc1)c1ccncc1		logP [1]: 0.05; solubility [2]: Soluble
Cc1cccc(NC(=O)c2ccc(C(=O)Nc3cccc(C)n3)cc2)n1	2.68	solubility [2]: Insoluble
Nc1nnc(CCN2C(=O)c3ccccc3C2=O)s1	1.39	
O=C(Cc1ccc([N+](=O)[O-])cc1)N/N=C/c1ccc(O)cc1	3.41	solubility [2]: Insoluble
Nc1ccccc1N/C=C1/C(=O)CNC1=O	-0.57	
O=C(c1ccco1)C12CN3CN(CN(C3)C1)C2	-0.96	solubility [2]: Soluble
COc1ccc(NC(=O)CSc2nnc(C)n2-c2ccc(C)cc2)cc1	3.95	
O=C(O)c1ccc2c(c1)C(=O)N(CCO)C2=O	0.09	solubility [2]: Soluble

SMILES	logP ([1]; read-out: logP)	also measured
O=C(Oc1ccc(OC(=O)c2ccco2)cc1)c1ccco1	2.53	solubility [2]: Insoluble
NC(N)N/N=C/c1cc(=O)[nH]c(=O)[nH]1	-1.79	
O=C(c1ccccc1O)c1[nH]ncc1[N+](=O)[O-]	1.6	
O=C(O)CCn1ncc2ccccc21	0.91	solubility [3]: Soluble
N#CC(C#N)=CNNC(=O)CNC(=O)c1ccccc1[N+](=O)[O-]	-0.72	solubility [3]: Insoluble
N#Cc1ccc[n+](Cc2cc(=O)[nH]c(=O)[nH]2)c1	0.38	
NS(=O)(=O)c1ccc2c(N=O)c(O)ccc2c1	1.3	
Nn1c(=O)[nH]c2c([nH]c3ccccc32)c1=O	0.26	
Oc1ccccc1/C=N/Nc1nnn[nH]1	3.23	solubility [2]: Insoluble
Nc1nonc1-c1nc2ccccc2n1CC(=O)O	1.08	
O=C(O)C(O)c1cccc([N+](=O)[O-])c1 (stereo unspecified)	0.98	
CCN1CCN(CCN)CC1	-0.88	solubility [2]: Soluble
Cc1nonc1NC(=O)CN1CCN(C)CC1	-1.04	
Cc1cc(-c2ccc(F)cc2)nc2cc(C(=O)O)nn12	2.08	
CCOc1ccc(Nc2nc(CC(=O)O)cs2)cc1	2.29	
COc1ccc(-c2nn(CCC#N)c(=O)[nH]2)cc1	1.15	solubility [3]: Soluble
N#CCCNCc1cccnc1	0.03	
CC(C)c1ccc(CN2CCN(CCO)CC2)cc1	1.93	solubility [2]: Insoluble
c1cncc(CNCc2cccnc2)c1	1.01	
NCC(=O)N(O)Cc1ccccc1	0.19	
C1CN2CCC1/C(=N\Nc1nnn[nH]1)C2	1.56	
O=C1c2ccccc2-c2nc3n[nH]nc3nc21	2	
C=CCNC(=O)C(=O)Nc1ccc(C(C)C)cc1	2	solubility [2]: Insoluble
O=CNc1nonc1NNc1ccccc1	0.89	solubility [2]: Soluble
C/N=C(/NC)SC1CC(=O)N(c2cccc(C(=O)O)c2)C1=O (stereo unspecified)	1.25	

SMILES	logP ([1]; read-out: logP)	also measured
NC(=O)c1ccc[n+](-c2ccccc2)c1	2.15	
O=C(Cc1ccc(Cl)cc1)N/N=C/c1c[nH]c2ccccc12	4.74	solubility [2]: Soluble
O=C(CC1NCCNC1=O)NCc1ccccc1 (stereo unspecified)	-0.2	
O=C(O)Cc1c(C(=O)O)[nH]c2ccccc12	1.67	
CN1CCN(CCCn2cnc3c2c(=O)n(C)c(=O)n3C)CC1	-0.76	solubility [2]: Soluble
Cn1c(=O)c(CC(=O)C(=O)O)nc2ccccc21	-0.29	
NCc1ccccn1	-0.11	
Cc1cc(C(=O)O)nn1-c1ccccc1	1.47	
O=C(O)Cc1c(O)c2c(c(O)c1Cl)C(=O)c1ccccc1C2=O	2.69	
O=C1Nc2ccccc2Nc2ccccc21	2.27	
O=C(CNC(=O)c1ccc2[nH]c3ccccc3c2c1)NCCO	1.4	
O=C(O)c1ccccc1-c1nc(O)c2ccccc2n1	2.25	
O=C(O)CCC(=O)Nc1ccc(Oc2ccccc2)cc1	2.36	
c1ccc2c(c1)n[n+]1c3ccccc3[n-]n21	2	
O=C(O)c1cc(-c2cccnc2)nc2ccccc12	2.51	solubility [2]: Insoluble
C=CCNc1nc(-c2cccs2)c(CC(=O)O)s1	2.29	
Cc1c(OC(C)C(=O)O)ccc2c3c(c(=O)oc12)CCC3 (stereo unspecified)	2.6	solubility [2]: Insoluble
COc1ccc2[nH]c(SCC(N)=O)nc2c1	1.01	
O=C(NCc1ccco1)c1cc(C(=O)NCc2ccco2)cc([N+](=O)[O-])c1	1.56	solubility [2]: Soluble
N#CCc1ccc(NC2=NS(=O)(=O)c3ccccc32)cc1	2.81	solubility [2]: Insoluble
O=C1CN=C(Nc2nc3ccccc3o2)N1	0.62	
